Experimental data taken from the NIST ThermoML archive (doi:10.1021/acs.jced.9b00441).
± gives the expanded uncertainty stated by the source.

Columns and labels:
[1] = refractive index (Na D-line) (dimensionless); conditions: 101.33 kPa, Liquid, Standard Abbe refractometry
[2] = Liquid; for mass density: 101.33 kPa, Vibrating tube method; for vapor or sublimation pressure: Closed cell (Static) method

| SMILES | refractive index ([1]; 293.15 K) | mass density ([2]; 293.15 K) [kg/m3] | mass density ([2]; 298.15 K) [kg/m3] | also measured |
| --- | --- | --- | --- | --- |
| OCC(F)(F)C(F)(F)C(F)(F)F [2,2,3,3,4,4,4-heptafluorobutanol] | 1.264 ± 0.001 | 1580 ± 2 |  |  |
| CC1CCCO1 (stereo not given) [2-methyltetrahydrofuran] |  | 855 ± 1 |  | refractive index ([1]; 294.15 K): 1.405 ± 0.001 |
| C1CCCCC1 [cyclohexane] | 1.423 ± 0.001 |  | 775 ± 1 |  |
| FC(F)=C(F)C(F)(F)F [hexafluoropropene] |  |  |  | vapor or sublimation pressure ([2]; 302.94 K): 838 ± 7 kPa; vapor or sublimation pressure ([2]; 312.91 K): 1094 ± 7 kPa; vapor or sublimation pressure ([2]; 322.94 K): 1407 ± 8 kPa; vapor or sublimation pressure ([2]; 332.94 K): 1783 ± 8 kPa; vapor or sublimation pressure ([2]; 342.92 K): 2225 ± 8 kPa |
| CCCCCC [hexane] |  |  | 654 ± 1 | refractive index ([1]; 298.15 K): 1.375 ± 0.001 |
| CC1CCCCC1 [methylcyclohexane] | 1.423 ± 0.001 | 769 ± 1 |  |  |
